From BindingDB's records for doi:10.1124/jpet.105.096792 (University of Tours, 2006)

Biological target: Sodium-dependent dopamine transporter (Rattus norvegicus, UniProt P23977)
Sequence (P23977 whole entry): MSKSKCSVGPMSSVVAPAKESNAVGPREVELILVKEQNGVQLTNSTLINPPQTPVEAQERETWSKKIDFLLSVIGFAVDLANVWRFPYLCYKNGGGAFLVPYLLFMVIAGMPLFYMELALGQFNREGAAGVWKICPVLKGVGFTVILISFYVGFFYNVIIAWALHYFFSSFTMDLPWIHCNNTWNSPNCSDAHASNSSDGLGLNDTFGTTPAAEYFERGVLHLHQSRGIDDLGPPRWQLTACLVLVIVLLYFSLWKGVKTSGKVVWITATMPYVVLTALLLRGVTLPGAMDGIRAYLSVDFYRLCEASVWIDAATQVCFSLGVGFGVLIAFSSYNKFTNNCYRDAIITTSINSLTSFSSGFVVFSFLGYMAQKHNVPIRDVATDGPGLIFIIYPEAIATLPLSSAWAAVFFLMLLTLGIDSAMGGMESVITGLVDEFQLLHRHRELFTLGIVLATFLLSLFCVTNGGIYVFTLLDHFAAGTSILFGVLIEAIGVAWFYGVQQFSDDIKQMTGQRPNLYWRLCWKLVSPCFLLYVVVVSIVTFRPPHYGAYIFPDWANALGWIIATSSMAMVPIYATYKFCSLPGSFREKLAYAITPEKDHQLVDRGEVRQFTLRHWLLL

SMILES | Ki [nM]
COC(=O)[C@H]1[C@@H](c2ccc(C)cc2)C[C@@H]2CC[C@H]1N2C/C=C/I | 18
Cc1ccc(Sc2ccccc2CN(C)C)c(N)c1 [2-(2-Dimethylaminomethyl-phenylsulfanyl)-5-methyl-phenylamine] | 1000
